Species on record: Rattus norvegicus
Experiment: DrugMatrix - Regimen: Daily Repeat
Type: toxicity, organism-based, Sprague-Dawley
Set-up: regimen Daily Repeat, gender Male, age 6-8 weeks
Settings: in vivo, po, route oral GAVAGE, vehicle .5 % CMC; for ABSOLUTE BASOPHIL / ABSOLUTE EOSINOPHIL / ABSOLUTE LYMPHOCYTE / ABSOLUTE MONOCYTE / ABSOLUTE SEGMENTED NEUTROPHIL / BASOPHIL / EOSINOPHIL / ERYTHROCYTE COUNT / HEMATOCRIT / HEMOGLOBIN / LEUKOCYTE COUNT / LYMPHOCYTE / MEAN CORPUSCULAR HEMOGLOBIN / MEAN CORPUSCULAR HEMOGLOBIN CONCENTRATION / MEAN CORPUSCULAR VOLUME / MONOCYTE / NEUTROPHIL / NUCLEATED RED BLOOD CELLS / PLATELET COUNT: tissue Blood; for ALANINE AMINOTRANSFERASE / ALBUMIN / ALKALINE PHOSPHATASE / ASPARTATE AMINOTRANSFERASE / BLOOD UREA NITROGEN / CARBON DIOXIDE / CHLORIDE / CHOLESTEROL / CREATINE PHOSPHOKINASE / CREATININE / GLUCOSE / LACTATE DEHYDROGENASE / LIPASE / PHOSPHORUS / POTASSIUM / SODIUM / TOTAL BILIRUBIN / TOTAL PROTEIN / URIC ACID: tissue Plasma
[1] = 16 mg/kg, 120 h, dose level Low, time 5 day
[2] = 94 mg/kg, 72 h, dose level High, time 3 day
[3] = 94 mg/kg, 120 h, dose level High, time 5 day

In the case of `CCOC(=O)OC(C)OC1=C(C(=O)Nc2ccccn2)N(C)S(=O)(=O)c2ccccc21` (centres undefined) [AMPIROXICAM], the “ABSOLUTE BASOPHIL” value [1] is reported as 0 CELLS/uL, the “ABSOLUTE EOSINOPHIL” value [1] is reported as 0 CELLS/uL and the “ABSOLUTE LYMPHOCYTE” value [1] is reported as 8819 CELLS/uL. For the same compound, the “ABSOLUTE MONOCYTE” value [1] was 212 CELLS/uL, the “ABSOLUTE SEGMENTED NEUTROPHIL” value [1] was 1469 CELLS/uL and the BASOPHIL [1] was 0%. The EOSINOPHIL [1] was 0%, the “ERYTHROCYTE COUNT” value [1] was 5.59 x10E6/uL and the HEMATOCRIT [1] was 33.9%. For the same compound, the HEMOGLOBIN [1] was 12.8 G/DL, the “LEUKOCYTE COUNT” value [1] was 10.5 x10E3/uL and the LYMPHOCYTE [1] was 84%. For the same compound, the “MEAN CORPUSCULAR HEMOGLOBIN” value [1] was 22.9 pg, the “MEAN CORPUSCULAR HEMOGLOBIN CONCENTRATION” value [1] was 37.77 G/DL and the “MEAN CORPUSCULAR VOLUME” value [1] was 60.67 fL. For the same compound, the MONOCYTE [1] was 2.33%, the NEUTROPHIL [1] was 13.67% and the “NUCLEATED RED BLOOD CELLS” value [1] was 0 /100WBC. The “PLATELET COUNT” value [1] was 1100 x10E3/uL, the “ALANINE AMINOTRANSFERASE” value [1] was 50.33 u/L and the ALBUMIN [1] was 4.2 G/DL. For the same compound, the “ALKALINE PHOSPHATASE” value [1] was 430.67 u/L, the “ASPARTATE AMINOTRANSFERASE” value [1] was 70.67 u/L and the “BLOOD UREA NITROGEN” value [1] was 13.67 mg/dL. The “CARBON DIOXIDE” value [1] was 26 mmol/L, the CHLORIDE [1] was 101.67 MEQ/L and the CHOLESTEROL [1] was 67.67 mg/dL. For the same compound, the “CREATINE PHOSPHOKINASE” value [1] was 214.67 u/L, the CREATININE [1] was 0.26 mg/dL and the GLUCOSE [1] was 161.33 mg/dL. For the same compound, the “LACTATE DEHYDROGENASE” value [1] was 71.67 u/L, the LIPASE [1] was 8.67 u/L and the PHOSPHORUS [1] was 11.93 mg/dL. The POTASSIUM [1] was 6.36 MEQ/L, the SODIUM [1] was 144.83 MEQ/L and the “TOTAL BILIRUBIN” value [1] was 0.17 mg/dL. The “TOTAL PROTEIN” value [1] was 6.1 G/DL, the “URIC ACID” value [1] was 1.73 mg/dL and the “ABSOLUTE BASOPHIL” value [2] was 0 CELLS/uL. For the same compound, the “ABSOLUTE EOSINOPHIL” value [2] was 73 CELLS/uL, the “ABSOLUTE LYMPHOCYTE” value [2] was 14276.67 CELLS/uL and the “ABSOLUTE MONOCYTE” value [2] was 831.33 CELLS/uL. The “ABSOLUTE SEGMENTED NEUTROPHIL” value [2] was 1685.67 CELLS/uL, the BASOPHIL [2] was 0% and the EOSINOPHIL [2] was 0.33%. For the same compound, the “ERYTHROCYTE COUNT” value [2] was 4.7 x10E6/uL, the HEMATOCRIT [2] was 28.03% and the HEMOGLOBIN [2] was 11.03 G/DL. The “LEUKOCYTE COUNT” value [2] was 16.87 x10E3/uL, the LYMPHOCYTE [2] was 85.33% and the “MEAN CORPUSCULAR HEMOGLOBIN” value [2] was 23.5 pg. For the same compound, the “MEAN CORPUSCULAR HEMOGLOBIN CONCENTRATION” value [2] was 39.33 G/DL, the “MEAN CORPUSCULAR VOLUME” value [2] was 59.67 fL and the MONOCYTE [2] was 5%. The NEUTROPHIL [2] was 9.33%, the “NUCLEATED RED BLOOD CELLS” value [2] was 0 /100WBC and the “PLATELET COUNT” value [2] was 907 x10E3/uL. The “ALANINE AMINOTRANSFERASE” value [2] was 30 u/L, the ALBUMIN [2] was 2.33 G/DL and the “ALKALINE PHOSPHATASE” value [2] was 163.67 u/L. The “ASPARTATE AMINOTRANSFERASE” value [2] was 53 u/L, the “BLOOD UREA NITROGEN” value [2] was 10 mg/dL and the “CARBON DIOXIDE” value [2] was 27.67 mmol/L. For the same compound, the CHLORIDE [2] was 103.67 MEQ/L, the CHOLESTEROL [2] was 107.67 mg/dL and the “CREATINE PHOSPHOKINASE” value [2] was 224.33 u/L. The CREATININE [2] was 0.21 mg/dL, the GLUCOSE [2] was 142.33 mg/dL and the “LACTATE DEHYDROGENASE” value [2] was 128 u/L. The LIPASE [2] was 11.33 u/L, the PHOSPHORUS [2] was 11.57 mg/dL and the POTASSIUM [2] was 6.23 MEQ/L. For the same compound, the SODIUM [2] was 144.1 MEQ/L, the “TOTAL BILIRUBIN” value [2] was 0.13 mg/dL and the “TOTAL PROTEIN” value [2] was 4.43 G/DL. For the same compound, the “URIC ACID” value [2] was 1.57 mg/dL, the “ABSOLUTE BASOPHIL” value [3] was 0 CELLS/uL and the “ABSOLUTE EOSINOPHIL” value [3] was 0 CELLS/uL. For the same compound, the “ABSOLUTE LYMPHOCYTE” value [3] was 17904 CELLS/uL, the “ABSOLUTE MONOCYTE” value [3] was 540 CELLS/uL and the “ABSOLUTE SEGMENTED NEUTROPHIL” value [3] was 3956 CELLS/uL. For the same compound, the BASOPHIL [3] was 0%, the EOSINOPHIL [3] was 0% and the “ERYTHROCYTE COUNT” value [3] was 3.63 x10E6/uL. The HEMATOCRIT [3] was 21.55%, the HEMOGLOBIN [3] was 8.6 G/DL and the “LEUKOCYTE COUNT” value [3] was 22.4 x10E3/uL. For the same compound, the LYMPHOCYTE [3] was 81%, the “MEAN CORPUSCULAR HEMOGLOBIN” value [3] was 23.8 pg and the “MEAN CORPUSCULAR HEMOGLOBIN CONCENTRATION” value [3] was 40.05 G/DL. The “MEAN CORPUSCULAR VOLUME” value [3] was 59.25 fL, the MONOCYTE [3] was 2.5% and the NEUTROPHIL [3] was 16.5%. For the same compound, the “NUCLEATED RED BLOOD CELLS” value [3] was 2.5 /100WBC, the “PLATELET COUNT” value [3] was 1838 x10E3/uL and the “ALANINE AMINOTRANSFERASE” value [3] was 30 u/L. For the same compound, the ALBUMIN [3] was 2.85 G/DL, the “ALKALINE PHOSPHATASE” value [3] was 259 u/L and the “ASPARTATE AMINOTRANSFERASE” value [3] was 60.5 u/L. The “BLOOD UREA NITROGEN” value [3] was 13 mg/dL, the “CARBON DIOXIDE” value [3] was 23.5 mmol/L and the CHLORIDE [3] was 104 MEQ/L. The CHOLESTEROL [3] was 67 mg/dL, the “CREATINE PHOSPHOKINASE” value [3] was 290 u/L and the CREATININE [3] was 0.21 mg/dL. The GLUCOSE [3] was 136.5 mg/dL, the “LACTATE DEHYDROGENASE” value [3] was 87 u/L and the LIPASE [3] was 9.5 u/L. For the same compound, the PHOSPHORUS [3] was 11.1 mg/dL, the POTASSIUM [3] was 6.99 MEQ/L and the SODIUM [3] was 141.6 MEQ/L. The “TOTAL BILIRUBIN” value [3] was 0.1 mg/dL, the “TOTAL PROTEIN” value [3] was 4.95 G/DL and the “URIC ACID” value [3] was 1.75 mg/dL.

Reference: ChEMBL document CHEMBL3885881, “DrugMatrix”
